Data as given in US7196103B2, “Indole derivatives as factor Xa inhibitors” (Sanofi-Aventis Deutschland GmbH, priority 2003, dated 2007).

The compounds below were run against T1, human factor Xa (Homo sapiens, UniProt P00742) (assay: Factor Xa assay (chromogenic, inhibition of factor Xa activity)). Settings: purified human factor Xa 0.5 nM, chromogenic substrate S-2765 140 μM, 25° C., pH 7.8; Ki calculated from IC50 corrected for substrate competition; read-out: Ki (inhibition constant) for the inhibition of factor Xa.
T1 construct: human factor Xa; purchased Enzyme Research Laboratories, Inc; South Bend, Ind
Assay type: biochemical
Method: Purified enzymes were used in chromogenic assays.
The assay was performed by pre-incubating the compound of formula I plus enzyme for 10 min. Then the assay was initiated by adding substrate to obtain a final volume of 100 μl. The initial velocity of chromogenic substrate hydrolysis was measured by the change in absorbance at 405 nm using a Bio-tek Instruments kinetic plate reader (Ceres UV900HDi) at 25° C. during the linear portion of the time course (usually 1.5 min after addition of substrate).

T1 sequence (P00742 235-488 limits assumed): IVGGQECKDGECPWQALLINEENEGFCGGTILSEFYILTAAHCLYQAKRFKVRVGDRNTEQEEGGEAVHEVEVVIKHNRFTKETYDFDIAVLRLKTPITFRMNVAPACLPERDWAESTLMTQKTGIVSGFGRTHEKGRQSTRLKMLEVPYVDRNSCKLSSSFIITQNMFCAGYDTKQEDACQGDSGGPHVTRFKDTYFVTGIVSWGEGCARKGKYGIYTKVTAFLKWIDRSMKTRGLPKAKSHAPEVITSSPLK
T1 sequence (P00742 41-179 partner limits assumed): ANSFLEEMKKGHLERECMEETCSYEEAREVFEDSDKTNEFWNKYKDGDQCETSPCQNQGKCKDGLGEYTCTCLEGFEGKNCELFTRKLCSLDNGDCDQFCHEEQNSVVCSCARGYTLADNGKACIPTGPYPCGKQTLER

| Ki | Compound |
| --- | --- |
| 57 nM | CC(C)N1CCC(NC(=O)c2cc3cc(C(=O)N4CC(O)C4)ccc3n2Cc2cc(-c3ccc(Cl)s3)on2)CC1 [Example 1, 1-[5-(5-Chloro-thiophen-2-yl)-isoxazol-3-ylmethyl]-5-(3-hydroxy-azetidine-1-carbonyl)-1H-indole-2-carboxylic acid (1-isopropyl-piperidin-4-yl)-amide] |
| 113 nM | CC(C)N1CCC(NC(=O)c2cc3cc(C(=O)N4CCCC4CO)ccc3n2Cc2cc(-c3ccc(Cl)s3)on2)CC1 (stereo not drawn) [Example 2, 1-[5-(5-Chloro-thiophen-2-yl)-isoxazol-3-ylmethyl]-5-(2-hydroxymethyl-pyrrolidine-1-carbonyl)-1H-indole-2-carboxylic acid (1-isopropyl-piperidin-4-yl)-amide] |
| 14 nM | CC(C)N1CCC(NC(=O)c2cc3cc(C(=O)OCC4COC(=O)O4)ccc3n2Cc2cc(-c3ccc(Cl)s3)on2)CC1 (stereo not drawn) [Example 3, 1-[5-(5-Chloro-thiophen-2-yl)-isoxazol-3-ylmethyl]-2-(1-isopropyl-piperidin-4-ylcarbamoyl)-1H-indole-5-carboxylic acid 2-oxo-[1,3]dioxolan-4-ylmethyl ester] |
| 22 nM | CC(C)N1CCC(NC(=O)c2cc3cc(C(=O)N4CCCOCC4)ccc3n2CC(=O)Nc2ccc(Cl)cn2)CC1 [Example 4, 1-[(5-Chloro-pyridin-2-ylcarbamoyl)-methyl]-5-([1,4]oxazepane-4-carbonyl)-1H-indole-2-carboxylic acid (1-isopropyl-piperidin-4-yl)-amide] |
| 9 nM | COCCOC(=O)OC(C)OC(=O)c1ccc2c(c1)cc(C(=O)NC1CCN(C(C)C)CC1)n2CC(=O)Nc1ccc(Cl)cn1 (stereo not drawn) [Example 5, 1-[(5-Chloro-pyridin-2-ylcarbamoyl)-methyl]-2-(1-isopropyl-piperidin-4-ylcarbamoyl)-1H-indole-5-carboxylic acid 1-(2-methoxy-ethoxycarbonyloxy)-ethyl ester] |
| 375 nM | CC(C)N1CCC(NC(=O)c2cc3cc(C(=O)N4CCCOCC4)ccc3n2CC(=O)Nc2ccc(Cl)nc2)CC1 [Example 6, 1-[(6-Chloro-pyridin-3-ylcarbamoyl)-methyl]-5-([1,4]oxazepane-4-carbonyl)-1H-indole-2-carboxylic acid (1-isopropyl-piperidin-4-yl)-amide] |
| 3 nM | CC(C)N1CCC(NC(=O)c2cc3c(C(=O)N4CCCOCC4)cccc3n2CC(=O)Nc2ccc(Cl)cn2)CC1 [Example 7, 1-[(5-Chloro-pyridin-2-ylcarbamoyl)-methyl]-4-([1,4]oxazepane-4-carbonyl)-1H-indole-2-carboxylic acid (1-isopropyl-piperidin-4-yl)-amide] |
| 133 nM | COc1cccc(Cn2c(C(=O)NC3CCN(C(C)C)CC3)cc3c(C(=O)N4CC(OC)C4)cccc32)c1 [Example 8, 4-(3-Methoxy-azetidine-1-carbonyl)-1-(3-methoxy-benzyl)-1H-indole-2-carboxylic acid (1-isopropyl-piperidin-4-yl)-amide] |
| 124 nM | COc1cccc(Cn2c(C(=O)NC3CCN(C(C)C)CC3)cc3c(C(=O)N4CC(O)C4)cccc32)c1 [Example 9, 4-(3-Hydroxy-azetidine-1-carbonyl)-1-(3-methoxy-benzyl)-1H-indole-2-carboxylic acid (1-isopropyl-piperidin-4-yl)-amide] |
| 24 nM | CC(C)ONC(=O)c1ccc2c(c1)cc(C(=O)NC1CCN(C(C)C)CC1)n2Cc1cc(-c2ccc(Cl)s2)on1 [Example 10, 1-[5-(5-Chloro-thiophen-2-yl)-isoxazol-3-ylmethyl]-1H-indole-2,5-dicarboxylic acid 5-(isopropoxy-amide) 2-[(1-isopropyl-piperidin-4-yl)-amide]] |
| 8 nM | CC(C)N1CCC(NC(=O)c2cc3cc(C(=O)N4CC(O)C4)ccc3n2CC(=O)Nc2ccc(Cl)cn2)CC1 [Example 11, 1-[(5-Chloro-pyridin-2-ylcarbamoyl)-methyl]-5-(3-hydroxy-azetidine-1-carbonyl)-1H-indole-2-carboxylic acid (1-isopropyl-piperidin-4-yl)-amide] |
| 14 nM | CC(C)N1CCC(NC(=O)c2cc3c(C(=O)N4CC(O)C4)cccc3n2Cc2cc(-c3ccc(Cl)s3)on2)CC1 [Example 12, 1-[5-(5-Chloro-thiophen-2-yl)-isoxazol-3-ylmethyl]-4-(3-hydroxy-azetidine-1-carbonyl)-1H-indole-2-carboxylic acid (1-isopropyl-piperidin-4-yl)-amide] |
| 2 nM | COCCOC(=O)OC(C)OC(=O)c1cccc2c1cc(C(=O)NC1CCN(C(C)C)CC1)n2CC(=O)Nc1ccc(Cl)cn1 (stereo not drawn) [Example 13, 1-[(5-Chloro-pyridin-2-ylcarbamoyl)-methyl]-2-(1-isopropyl-piperidin-4-ylcarbamoyl)-1H-indole-4-carboxylic acid 1-(2-methoxy-ethoxycarbonyloxy)-ethyl ester] |
| 1 nM | Cc1oc(=O)oc1COC(=O)c1cccc2c1cc(C(=O)NC1CCN(C(C)C)CC1)n2Cc1cc(-c2ccc(Cl)s2)on1 [Example 14, 1-[5-(5-Chloro-thiophen-2-yl)-isoxazol-3-ylmethyl]-2-(1-isopropyl-piperidin-4-ylcarbamoyl)-1H-indole-4-carboxylic acid 5-methyl-2-oxo-[1,3]dioxol-4-ylmethyl ester] |
| 11 nM | Cc1oc(=O)oc1COC(=O)c1ccc2c(c1)cc(C(=O)NC1CCN(C(C)C)CC1)n2Cc1cc(-c2ccc(Cl)s2)on1 [Example 15, 1-[5-(5-Chloro-thiophen-2-yl)-isoxazol-3-ylmethyl]-2-(1-isopropyl-piperidin-4-ylcarbamoyl)-1H-indole-5-carboxylic acid 5-methyl-2-oxo-[1,3]dioxol-4-ylmethyl ester] |
